In PubChem BioAssay AID624265 (Broad Institute, 2012):
Activity calls are given as the source filed them.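 The calls were made as follows: active = at a dose no more than twice the top valid tested dose, the fitted curve drops below -35% activity change; inactive = the rest, rising-direction activity included.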

Assay: NIH3T3 cell viability loss, ATP content – CellTiter-Glo luminescence, cherry-pick, set 2, cytotoxicity control for HSP40 inhibitor project, dose response (AID 624265);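 also: cells exposed to compound for 48 hours before the ATP read; 0% = median neutral control signal and -100% = no luminescence left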
Details: NIH3T3 viability, CellTiter-Glo ATP luminescence

| SMILES | activity change, negative = toxicity (at 50 µM (top of the series)) | activity change, negative = toxicity (at 5.6 µM (top of the series)) |
| --- | --- | --- |
| CCC(NC(=S)NCc1ccc(F)cc1)c1ccc(C(C)C)cc1 (configuration not stated) | 41.2% (inactive) |  |
| COc1ccc(N(C(=O)c2ccncc2)S(=O)(=O)c2ccc(F)cc2)cc1 | 0.026% (inactive) |  |
| O=c1c2ccccc2nc(-c2ccc(-c3ccccc3)cc2)n1-c1ccncc1 | 4% (inactive) |  |
| CC1=CC(C)(C)N(S(=O)(=O)c2ccc(C)cc2)c2ccc(C)cc21 | 9.86% (inactive) |  |
| CCOC(=O)N1C(=O)C2(CCCCC2)N(c2ccccc2Cl)C1=S | -8.13% (inactive) |  |
| COc1cc2cnc(-c3ccccc3)c(C(=O)c3ccc(F)cc3)c2cc1OC | 26.6% (inactive) |  |
| O=C(Nc1cc(Oc2ccc(Cl)cc2)cc([N+](=O)[O-])c1)c1ccco1 | -2.9% (inactive) |  |
| Cc1cccc(C)c1N1C(=O)C2ON(c3ccccc3)C(c3ccncc3)C2C1=O (configuration not stated) | 15.5% (inactive) |  |
| CC(=O)C1=C(c2cccc([N+](=O)[O-])c2)N(C(C)=O)n2c(C)nnc2S1 | 4.36% (inactive) |  |
| Cc1ccccc1Oc1nc(-c2ccccn2)nc2ccccc12 | 6.99% (inactive) |  |
| O=C(CC1CC2CCC1C2)Nc1nc(-c2ccccn2)cs1 (configuration not stated) | 10.2% (inactive) |  |
| CC(C)(C)C(=O)C(Oc1ccc(Cl)cc1)n1cncn1 (configuration not stated) | 9.05% (inactive) |  |
| FC(F)(F)c1nc(SCc2ccc(Cl)cc2Cl)n[nH]1 | -4.01% (inactive) |  |
| Cc1ccc(Sc2ccc(NC(=O)CCl)cc2)cc1C | 2.95% (inactive) |  |
| CCCc1cc(C(N)=O)c(NC(=O)c2cc(C)on2)s1 | 12.3% (inactive) |  |
| O=C(O)c1ccccc1NC(c1ccccc1)c1ccc2cccnc2c1O (configuration not stated) | -15.4% (inactive) |  |
| Cc1ccc(O)c(-c2cc(-c3ccccc3C)[nH]n2)c1 | -5.19% (inactive) |  |
| O=[N+]([O-])c1cccc(C=NNc2ccc3ccccc3n2)c1O | -29.6% (inactive) |  |
| CC(/C=N/n1c(COc2ccccc2)n[nH]c1=S)=C\c1ccccc1 | 14.6% (inactive) |  |
| COc1cccc(C(C)=C2SC(=S)NC2=O)c1 | 1.04% (inactive) |  |
| CCOC(=O)c1ccc(NC(=S)N(Cc2cccnc2)Cc2ccco2)cc1 | 2.56% (inactive) |  |
| C[n+]1c2cc(N)ccc2cc2ccc(N)cc21 | 14.2% (inactive) |  |
| COc1ccc(N(C)S(=O)(=O)c2ccc(Cl)c(C(=O)NNC(=O)c3ccccc3O)c2)cc1 | 3.26% (inactive) |  |

| SMILES | activity change, negative = toxicity (at 50 µM (top of the series)) | activity change, negative = toxicity (at 5.6 µM (top of the series)) |
| --- | --- | --- |
| CN(c1ccccc1)c1nc(N2CCCC2)nc(-n2ccnc2)n1 | 11.2% (inactive) |  |
| Cc1ccc(Sc2cc(C)nc(-c3ccccn3)n2)cc1 | 11.7% (inactive) |  |
| COc1ccccc1-c1sc2cc3c(cc2c1C#Cc1cncn1C)OCO3 | 17.2% (inactive) |  |
| CCCCCCSc1ccc(-c2nc3ccccn3c2NCCCC)cc1 | 14% (inactive) |  |
| C=CCNC(=S)N1CCC(Cc2ccccc2)CC1 | 7.32% (inactive) |  |
| C=CCNc1nc(-c2ccccn2)nnc1-c1ccccc1 | -23.8% (inactive) |  |
| COC(=O)COC(=O)c1ccccc1NC(=O)c1ccccc1 | -14.7% (inactive) |  |
| O=[N+]([O-])c1cc(C(F)(F)F)ccc1NCCc1c[nH]c2ccc(O)cc12 | -9.08% (inactive) |  |
| Cc1cc(NS(=O)(=O)c2ccc(C3CCCCC3)cc2)no1 | -14.2% (inactive) |  |
| Cc1nn(CCC#N)c(N)c1C1(O)C(=O)Nc2c(Cl)cc(Cl)cc21 (configuration not stated) | -6.69% (inactive) |  |
| CCn1c2ccc(C)cc2c2nc3cc(C(=O)O)ccc3nc21 | -4.25% (inactive) |  |
| Cc1ccc(NS(=O)(=O)c2ccc(N3CCN(c4ccc(O)cc4)CC3)c([N+](=O)[O-])c2)c(C)c1 | 24.6% (inactive) |  |
| CCCC1CCC(c2ccc(/C(N)=N/O)cc2)CC1 (configuration not stated) | -4% (inactive) |  |
| O=C(NCC1CC1(Cl)Cl)Nc1ccc(Cl)c(Cl)c1 (configuration not stated) | 17.4% (inactive) |  |
| CCc1ccc(CN(C)C(=O)c2cc(COc3cccc(C(F)(F)F)c3)on2)nc1 | 5.53% (inactive) |  |
| O=C(NC(=S)N(CCc1ccccc1)CCc1ccccc1)c1ccco1 | 20.1% (inactive) |  |
| O=C(Nc1ccc(Cl)cc1C(=O)Nc1ccc(Br)cn1)c1ccco1 | -5.93% (inactive) |  |
| Cc1cc(C)c(C(=O)CC(=O)c2cccnc2)c(C)c1 | 8.73% (inactive) |  |
| CCCOc1ccc2ccccc2c1/C=C1\SC(=O)NC1=O | 6.17% (inactive) |  |
| Clc1nc(-c2ccccn2)nc2scc(-c3ccccc3)c12 | 5.16% (inactive) |  |
| Cc1ccsc1/C=C/c1ccc2cccc(O)c2n1 | -8.21% (inactive) |  |
| CCCCCCCn1c(=O)c(C(=O)OC)c(N)c2ccccc21 | -3.81% (inactive) |  |
| O=C1Nc2c(Br)cccc2C1=O | -1.42% (inactive) |  |

| SMILES | activity change, negative = toxicity (at 50 µM (top of the series)) | activity change, negative = toxicity (at 5.6 µM (top of the series)) |
| --- | --- | --- |
| O=c1c(CO)cc(CO)cc(CO)c1O | -3.78% (inactive) |  |
| Nc1cc2c3ccccc3ccc2c2ccccc12 | -1.86% (inactive) |  |
| CC(NC(=S)NC1CCC(C(C)(C)C)CC1)c1ccccc1 (configuration not stated) | 3.27% (inactive) |  |
| COc1ccc(N=N/C(=C\O)C(=O)c2cccs2)cc1 | 14.1% (inactive) |  |
| CCOC(=O)c1ccc(N2C(=O)CC(N3CCC(O)(c4ccc(Cl)cc4)CC3)C2=O)cc1 (configuration not stated) | -0.824% (inactive) |  |
| O=C(CSc1ccc(-c2ccccn2)nn1)NCc1ccc(F)cc1 | -2.59% (inactive) |  |
| CC1CCN(c2ccc3c(c2)S(=O)(=O)c2ccccc2C3=O)CC1 | -1.31% (inactive) |  |
| O=c1c(O)c(-c2ccccc2)oc2ccccc12 | -0.823% (inactive) |  |
| CC12CCC(O)CC1=CCC1C2CCC2(C)C3=NN=CC3CC12 (configuration not stated) | 6.4% (inactive) |  |
| Cc1ccc(Nc2cc(C)nn2-c2nc(C)cc(C)n2)cc1 | -3.61% (inactive) |  |
| CC(C)C(=O)NC(c1cccc([N+](=O)[O-])c1)c1ccc2cccnc2c1O (configuration not stated) |  | -21% (inactive) |
| CC1=NN(C(N)=S)C(=O)C1N=Nc1cccc(Cl)c1C (configuration not stated) | -14.8% (inactive) |  |
| S=C(NCc1ccco1)Nc1ccc(Oc2ccc(Cl)cc2)cc1 | 10.2% (inactive) |  |
| Cc1nc(-c2ccccn2)nc(N(C)c2ccccc2)c1Cl | 9.36% (inactive) |  |
| CCC(Oc1ccc(Br)cc1Cl)C(=O)Nc1nnc(C2CC2)s1 (configuration not stated) | 5.54% (inactive) |  |
| CCCn1c(=O)c(C(=O)NCc2ccc(OC)c(OC)c2)c(O)c2ccccc21 | 30.8% (inactive) |  |
| COc1cc(/C=N/O)cc(Br)c1OCc1cccc(Cl)c1 | 3.56% (inactive) |  |
| CC1Oc2ccccc2C=C1/C=N/Nc1ccc(C(=O)O)cc1 (configuration not stated) | 1.68% (inactive) |  |
| CC(C)NC(=O)NC(=O)COC(=O)c1ccc([N+](=O)[O-])cc1Cl | -6.58% (inactive) |  |
| O=C(O)c1c(NC(=O)N2CCCC2)sc2c1CCCC2 | 19.6% (inactive) |  |
| CCCCc1ccc(-n2c(Cc3cccs3)n[nH]c2=S)cc1 | -7.72% (inactive) |  |
| O=C(c1ccccc1)c1ccc(Cn2cc(-c3ccccc3)nn2)cc1 | 5.39% (inactive) |  |
| CN1CCN(C(=O)c2cc(COc3ccc(F)cc3Cl)on2)CC1c1ccccc1 (configuration not stated) | 14.2% (inactive) |  |

| SMILES | activity change, negative = toxicity (at 50 µM (top of the series)) | activity change, negative = toxicity (at 5.6 µM (top of the series)) |
| --- | --- | --- |
| O=C(CN1CC[n+]2c(-c3cccs3)csc21)c1ccc(-c2ccccc2)cc1 | 28% (inactive) |  |
| C=CCN(CC=C)C(=S)NC(=O)c1ccc(C)c(Br)c1 | 19.7% (inactive) |  |
| NC(=Nc1nc(-c2ccccn2)cc2ccccc12)c1ccccn1 | -27.1% (inactive) |  |
| CNc1cc(CSC)nc(SCc2ccc(Cl)cc2Cl)n1 | 18.6% (inactive) |  |
| O=C(N/N=C/c1ccc[nH]1)c1sc2ccccc2c1Cl | -15.3% (inactive) |  |
| CC1(C)C2CCC1(C)C(OC(=O)c1ccc(O)cc1)C2 (configuration not stated) | -0.777% (inactive) |  |
| C=CCc1ccc(O)c(-c2ccc(O)c(CC=C)c2)c1 | 9.45% (inactive) |  |
| CCCCCCC(Cl)(Cn1ccnc1)c1ccccc1 (configuration not stated) | 16% (inactive) |  |
| CC(=O)NC(c1ccc(C)cc1)c1cc([N+](=O)[O-])c2cccnc2c1O (configuration not stated) | -0.602% (inactive) |  |
| O=S(=O)(Nc1ccccc1)c1ccc(Oc2ncc(C(F)(F)F)cc2Cl)cc1 | 13% (inactive) |  |
| O=S1OC(c2ccccc2)c2cc(Cl)ccc21 (configuration not stated) | 8.75% (inactive) |  |
| C=C(C)COc1ccc(-c2[nH]ncc2-c2ccccc2)c(O)c1 | -16.4% (inactive) |  |
| CCCn1nc(C(=O)N2CCN(S(=O)(=O)c3ccc(C)c(C)c3)CC2)c2ccccc2c1=O | 2.59% (inactive) |  |
| CCCCCOc1ccc(CSc2n[nH]c(C)n2)cc1 | 5.34% (inactive) |  |
| Cn1nc(C(F)(F)F)c(C#N)c1N1CCN(c2ccc(F)cc2)CC1 | 21.3% (inactive) |  |
| O=C(OCC(=O)C12CC3CC(CC(C3)C1)C2)c1ccc(O)cc1 | 0.345% (inactive) |  |
| CCn1c(CNc2ccc(Cl)cc2)nnc1SCc1ccc(Cl)cc1 | 12.6% (inactive) |  |
| Cc1cc(Nc2ccccc2)nn1C(=O)c1ccccc1 | 10% (inactive) |  |
| S=C(Nc1ccc(Oc2ccccc2)cc1)NC1CCCCCC1 | 12.1% (inactive) |  |
| Oc1c(CN2CCCC2)cc(COCc2ccccc2)c2cccnc12 | -2.61% (inactive) |  |
| OCCN(CCO)c1cc2c3ccccc3ccc2c2ccccc12 | -14.3% (inactive) |  |
| COc1ccccc1C1CCN(C(=O)c2ccc(Cl)cc2)CC1 | 6.31% (inactive) |  |
| COc1cnc(-c2ccccn2)nc1Sc1ccccc1 | 9.22% (inactive) |  |
